Test results published in patent US20050038058A1, “Novel compounds and methods for therapy” (Institute of Organic Chemistry and Biochemistry, priority 2001, published 2005).
≈ marks a conversion by molar mass, not a printed value. Where two headings read alike, the source gives them in different places. Marks after values point to notes of the source that are not given here.

Key:
[1] = system: HIV-2(ROD); assay: HIV-2(ROD)-induced cytopathicity in CEM cell cultures; type: cell-based; details: for EC50: Human immunodeficiency virus 2, CCRF-CEM, read-out: EC50 HIV-2 (ROD) (CEM)
From the text: (§1) Viruses. The origins of MSV, HIV type 1 (HIV-1) (strain IIIB and Ba-L), HIV-2 (strain ROD) and FIV (strain Petaluma) have been described previously (Balzarini et al., AIDS 5: 21-28, 1991; De Clercq et al., Proc. Soc. Exp. Biol. Med. 137:590-594, 1971; Egberink et al., Proc. Natl. Acad. Sci. 87:3087-3091, 1990; Hartmann et al., Antiviral Chem. Chemother. 5:13-19, 1994; Popovic et al., Science 224:497-500, 1984). HIV-1(IIIB) and HIV-2(ROD) stocks were obtained from supernatants of virus-infected MT-4 cell cultures. HIV-1BaL was expanded in human primary M/M, whose supernatants were collected, filtered and stored at −80° C. before use. Characteristics of viral stocks used for this study were 2.1×10^8 HIV-RNA genomes/ml (corresponding to 35 ng of p24 antigen) and 5,000 tissue culture infectious doses 50% per ml (TCID50/ml) as assessed by virus titration in other primary M/M cultures. The isolation and characterization of the clinical HIV-1 isolates L1S, L6S and L6S/PMEA has been reported (Thormar et al., Proc. Natl. Acad. Sci. USA 93:3283-3287, 1995; Van Laethem et al., AIDS 15:553-561, 2001). […] HIV-1/L6S/PMEA is the clinical isolate HIV-1/L6S that has been isolated after culturing the virus for 11 passages in the presence of increasing concentrations of PMEA (adefovir).
(§2) In vitro antiviral assays. The activity against HIV-1- and HIV-2-induced cytopathicity was examined in MT-4 cell cultures at day 5 post infection and based on the determination of cell viability by trypan blue dye staining or in CEM cell cultures at day 4 to 5 post infection and based on the microscopical examination of virus-induced giant cell formation. HIV-1 and HIV-2 were added at 100 CCID50 to the cell cultures.

[2] = system: HIV-2(ROD); assay: HIV-2(ROD)-induced cytopathicity in MT-4 cell cultures; type: cell-based
From the text: as §1, §2

[3] = system: HIV-1(Ba-L); assay: HIV-1(BaL) p24 antigen production in human primary macrophages (M/M); type: cell-based; details: Table 2; for EC50: Human immunodeficiency virus 1, BAL, Primary macrophage
From the text: Viruses. The origins of MSV, HIV type 1 (HIV-1) (strain IIIB and Ba-L), HIV-2 (strain ROD) and FIV (strain Petaluma) have been described previously (Balzarini et al., AIDS 5: 21-28, 1991; De Clercq et al., Proc. Soc. Exp. Biol. Med. 137:590-594, 1971; Egberink et al., Proc. Natl. Acad. Sci. 87:3087-3091, 1990; Hartmann et al., Antiviral Chem. Chemother. 5:13-19, 1994; Popovic et al., Science 224:497-500, 1984). HIV-1(IIIB) and HIV-2(ROD) stocks were obtained from supernatants of virus-infected MT-4 cell cultures. HIV-1BaL was expanded in human primary M/M, whose supernatants were collected, filtered and stored at −80° C. before use. Characteristics of viral stocks used for this study were 2.1×10^8 HIV-RNA genomes/ml (corresponding to 35 ng of p24 antigen) and 5,000 tissue culture infectious doses 50% per ml (TCID50/ml) as assessed by virus titration in other primary M/M cultures. The isolation and characterization of the clinical HIV-1 isolates L1S, L6S and L6S/PMEA has been reported (Thormar et al., Proc. Natl. Acad. Sci. USA 93:3283-3287, 1995; Van Laethem et al., AIDS 15:553-561, 2001). The HIV-1/L1S clinical isolate was derived from a patient not treated with NRTIs (nucleoside reverse transcriptase inhibitors) or ANPs and cultured without the selective pressure of any drugs. Therefore, it contained no obvious mutations that are characteristic for NRTI- or ANP-treated patients. HIV-1/L6S is a clinical isolate from a drug-treated individual cultured without the selective pressure of any drugs. As is characteristic for NRTI-treated patients, it contained S68G, K70T, V75I, F77L, F116Y and Q151M mutations in its RT. HIV-1/L6S/PMEA is the clinical isolate HIV-1/L6S that has been isolated after culturing the virus for 11 passages in the presence of increasing concentrations of PMEA (adefovir). It gained, in addition to the mutations mentioned for HIV-1/L6S, also the PMEA-characteristic K65R mutation in its reverse transcriptase (RT).
Human primary macrophages (M/M) were prepared and purified as follows. Peripheral blood mononuclear cells (PBMC), obtained from healthy HIV-1-negative donors were separated over a Ficoll gradient and seeded in 48-well plates at 1.8×10^6 cells/well in 1 ml of RPMI 1640 containing 20% heat-inactivated, endotoxin- and mycoplasma-free fetal bovine serum (Hyclone Laboratories, Inc., Logan, Utah), 4 mM L-glutamine (Life Technologies), 50 U/ml penicillin and 50 μg/ml streptomycin (Life Technologies) (hereinafter referred to as complete medium). Five days after plating and culturing the PBMC at 37° C. in a humidified atmosphere enriched with 5% CO2-adherent cells were carefully removed with repeated washings with warmed RPMI-1640, leaving a monolayer of adherent cells which were finally incubated in complete medium. […]

[4] = system: MSV; type: in vivo; details: for Number of Mice not Developing a Tumor (percent): intraperitoneal, 5 daily doses, newborn NMRI mice
[5] = MT-4 cell toxicity (trypan blue exclusion); type: cell-based; details: human, reduction of cell viability, Table 2
Protocol: Cytostatic and antimetabolic effect of acyclic nucleoside phosphonates in vitro. The assays to examine the inhibition of CEM cell growth by the test compounds have been described previously (Balzarini et al., AIDS 5:21-28, 1991). The 50% cytostatic concentration (CC50) was defined as the concentration of compound that reduced the number of living cells by 50% . To measure MT-4 cell toxicity of the test compounds, 5×10^4 MT-4 cells were incubated in the wells of 96-well microplates in the presence or absence of different concentrations of the test compounds for 5 days at 37° C. The CC50 was then calculated from the number of living cells counted under a microscope by the trypan blue exclusion method.

[6] = Toxicity in CrFK cells; type: cell-based, feline; details: cat, Table 2
[7] = 20 mg/kg, premature death not taken into account
[8] = 50 mg/kg, premature death not taken into account
[9] = Human immunodeficiency virus 2, MT4, read-out: EC50 HIV-2 (ROD) (MT-4)

## C[C@H](Cn1cnc2c(N)ncnc21)OCP(=O)(O)O [(R)-PMPA, (R)-9-[(2-phosphonomethoxy)-propyl]adenine, reference compound]
[1]; giant cell formation, Table 2
  EC50 HIV-2 (ROD) (CEM): 0.43 ± 0.41 µg/mL (≈ 1.5 µM)
[2]; Table 2
  EC50 HIV-2 (ROD) (MT-4): 0.52 µg/mL (≈ 1.81 µM)
[3]
  EC50 HIV-1 (BaL) (M/M): 0.003 ± 0.001 µg/mL (≈ 0.0104 µM)
[4]; 2 mg/kg
  Number of Long-Term Survivors (%) (>30 days): 31%
  Number of Mice not Developing a Tumor (percent): 0%
[4]; 8 mg/kg
  Number of Long-Term Survivors (%) (>30 days): 83%
  Number of Mice not Developing a Tumor (percent): 65%
[4]; 20 mg/kg
  Number of Mice not Developing a Tumor (percent): 92%
[4]; [7]
  Number of Long-Term Survivors (%) (>30 days): 100%
[4]; 50 mg/kg
  Number of Mice not Developing a Tumor (percent): 100%
[4]; [8]
  Number of Long-Term Survivors (%) (>30 days): 100%

## Nc1cc(OCCOCP(=O)(O)O)nc(N)n1 [Compound 1, 2,4-diamino-6-[2-(phosphonomethoxy)ethoxy]pyrimidine]
[1]
  EC50: 0.66 ± 0.19 µg/mL (≈ 2.5 µM)
[2]; [9]
  EC50: 0.29 µg/mL (≈ 1.1 µM)
[3]
  EC50: 0.002 ± 0.001 µg/mL (≈ 0.00757 µM)
[5]; MT-4 cells
  CC50 at 5 days: 46 ± 7.4 µg/mL (≈ 174 µM)
[6]; CrFK cells
  CC50: 11 µg/mL (≈ 41.6 µM)
[4]; 2 mg/kg
  Number of Long-Term Survivors (%) (>30 days): 15%
  Number of Mice not Developing a Tumor (percent): 5%
[4]; 8 mg/kg
  Number of Long-Term Survivors (%) (>30 days): 89%
  Number of Mice not Developing a Tumor (percent): 44%
[4]; 20 mg/kg
  Number of Mice not Developing a Tumor (percent): 80%
[4]; [7]
  Number of Long-Term Survivors (%) (>30 days): 100%
[4]; 50 mg/kg
  Number of Mice not Developing a Tumor (percent): 84%
[4]; [8]
  Number of Long-Term Survivors (%) (>30 days): 100^b %
[4]; 50 and 20 mg/kg
  Mice protected from tumor formation: At least 80%

## Nc1cc(SCCOCP(=O)(O)O)nc(N)n1 [Compound 2, 2,4-diamino-6-{[2-(phosphonomethoxy)ethyl]-sulfanyl}pyrimidine]
[1]
  EC50: 3 ± 1.4 µg/mL (≈ 10.7 µM)
[2]; [9]
  EC50: 2.9 µg/mL (≈ 10.3 µM)
[5]; MT-4 cells
  CC50 at 5 days: ≥ 100 µg/mL
[6]; CrFK cells
  CC50: 42 µg/mL (≈ 150 µM)
[4]; 2 mg/kg
  Number of Long-Term Survivors (%) (>30 days): 0%
  Number of Mice not Developing a Tumor (percent): 0%
[4]; 8 mg/kg
  Number of Long-Term Survivors (%) (>30 days): 20%
  Number of Mice not Developing a Tumor (percent): 0%
[4]; 20 mg/kg
  Number of Mice not Developing a Tumor (percent): 0%
[4]; [7]
  Number of Long-Term Survivors (%) (>30 days): 20%
[4]; 50 mg/kg
  Number of Mice not Developing a Tumor (percent): 0%
[4]; [8]
  Number of Long-Term Survivors (%) (>30 days): 20%
[4]; all doses tested
  Prevention of tumor formation, in words: unable to prevent tumor formation
[4]; dose of 8-50 mg/kg
  Long-term survivors: 20%
[4]; mouse, in vivo
  Delay of MSV-induced tumor formation, in words: only showed a pronounced delay in tumor formation at a dose of 50 mg/kg

## C[C@H](COc1cc(N)nc(N)n1)OCP(=O)(O)O [Compound 11, 2,4-diamino-6-(R)-[2-(phosphonomethoxy)propoxy]pyrimidine]
[1]; giant cell formation, Table 2
  EC50 HIV-2 (ROD) (CEM): 1.3 ± 0.4 µg/mL (≈ 4.67 µM)
[2]; Table 2
  EC50 HIV-2 (ROD) (MT-4): 1.6 ± 0.6 µg/mL (≈ 5.75 µM)
[3]
  EC50 HIV-1 (BaL) (M/M): 0.005 ± 0.0 µg/mL (≈ 0.018 µM)
[4]; 2 mg/kg
  Number of Long-Term Survivors (%) (>30 days): 5%
  Number of Mice not Developing a Tumor (percent): 0%
[4]; 8 mg/kg
  Number of Long-Term Survivors (%) (>30 days): 40%
  Number of Mice not Developing a Tumor (percent): 15%
[4]; 20 mg/kg
  Number of Mice not Developing a Tumor (percent): 20%
[4]; [7]
  Number of Long-Term Survivors (%) (>30 days): 40^c %

## Nc1ncnc2c1ncn2CCOCP(=O)(O)O [PMEA, 9-[(2-phosphono-methoxy)ethyl]adenine, reference compound]
[1]; giant cell formation, Table 2
  EC50: 1.9 ± 1.1 µg/mL (≈ 6.95 µM)
[2]; Human immunodeficiency virus 2, MT4, Table 2, read-out: EC50 HIV-2 (ROD) (MT-4)
  EC50: 1.9 µg/mL (≈ 6.95 µM)
[3]
  EC50: 0.006 µg/mL (≈ 0.022 µM)
[5]
  CC50 at 5 days: 28 ± 12 µg/mL (≈ 102 µM)
[6]
  CC50: 18 µg/mL (≈ 65.9 µM)
[4]; 4 mg/kg
  Number of Long-Term Survivors (%) (>30 days): 35%
  Number of Mice not Developing a Tumor (percent): 5%
[4]; 8 mg/kg
  Number of Long-Term Survivors (%) (>30 days): 77%
  Number of Mice not Developing a Tumor (percent): 44%
[4]; 20 mg/kg
  Number of Mice not Developing a Tumor (percent): 89%
[4]; [7]
  Number of Long-Term Survivors (%) (>30 days): 94%
[4]; 100 mg/kg
  Number of Mice not Developing a Tumor (percent): 100^d percent
